# Experimental data reported in US4239709A, “Process for preparing optically active oxazaphosphorins” (Otsuka Pharmaceutical Co., Ltd., priority 1978, dated 1980).
# Where two headings read alike, the source gives them in different places.
# Assays:
# [1] = system: Lymphoid leukemia L-1210 solid-type tumor; experiment: L1210 Tumor test (solid-type tumor, subcutaneous, inhibition of tumor proliferation by tumor weight); assay type: in vivo, BDF1 male mice; settings: for ED50 / ED90: Mus musculus; for ED50 / ED90 / ID50 / ID90: L1210 tumor; for ED50: read-out: ID50 (the source's name); for ED90: read-out: ID90 (the source's name)
# Description: (§1) Lymphoid leukemia L-1210 solid-type tumor was transplanted (1×10^6 cells) in subcutis on the back of BDF1 male mice having the body weight of about 22 g. The mice were killed 10-11 days after the transplantation and the inhibitory effect of tumor proliferation was evaluated by measuring the weight of tumor.
# (§2) Each of 5, 10, 20, 50, 100 mg of compounds to be tested is dissolved in a phisiological NaCl solution (5 mg/kg of concentration) and administered by intraperitoneal injection (I.P.) or orally (P.O.). As to the reference the phisiological NaCl solution (5 mg/kg of concentration) was used.
# [2] = system: Lymphocytic leukemia P388 tumor; experiment: P388 tumor test (Table 2, headed P328 Tumor test); assay type: in vivo, BDF1 male mice; settings: for ED50 / ED90: Mus musculus, P388, ip; for ED50: read-out: ID50 (the source's name); for ED90: read-out: ID90 (the source's name)
# Description: Lymphocytic leukemia P388 liquid-type tumor was transplanted (1×10^6 cells) in abdominal cavity of BDF1 male mice having the body weight of about 20 g. The effect was evaluated by a method of ILS (Increase in life span).
# as §1, with “Similarly lymphocytic” for “Lymphoid”, “P388” for “L-1210”, “15 to 16” for “10-11”
# as §2
# [3] = Acute toxicity test (LD50); assay type: in vivo, ICR male mice; settings: for LD50: ICR male mice, I.P.
# From the text: LD50 (mg/kg) values (ICR male mice, I.P.) of R-(+)-cyclophosphamide, S-(-)-cyclophosphamide and racemic form of cyclophosphamide are shown below.
# [4] = system: Lymphoid leukemia L-1210 solid-type tumor; experiment: L1210 Tumor test (solid-type tumor, subcutaneous, inhibition of tumor proliferation by tumor weight); assay type: in vivo, BDF1 male mice; settings: Mus musculus, L1210, sc, I.O. (so in the source)
# PC6-Tumor = settings: compared with R-(+)-cyclophosphamide and racemic form; Cox et al. 1976; cited from earlier work
# [5] = compared with R-(+)-cyclophosphamide; Cox et al. 1976; cited from earlier work
# [6] = P328 Tumor test (so in the source), I.P.
# [7] = mouse, in vivo, ip, read-out: LD50
smiles,measurement,setting,value
"O=P1(N(CCCl)CCCl)NCCCO1 (racemic) [Racemic form of cyclophosphamide, cyclophosphamide]",ED50,"[1]; L1210, po, P.O.",28 mg/kg
same,ED90,"[1]; L1210, po, P.O.",90 mg/kg
same,ED50,[2]; [6],12.9 mg/kg
same,ED90,[2]; [6],39.7 mg/kg
same,LD50,[3]; [7],440 mg/kg
same,ED50,[4]; read-out: ID50 (the source's name),33 mg/kg
same,ED90,[4]; read-out: ID90 (the source's name),107 mg/kg
"O=P1(N(CCCl)CCCl)NCCCO1 (single isomer, unassigned) [R-(+)-cyclophosphamide]",ED50,"[1]; L1210, ip, I.P.",32 mg/kg
same,ED90,"[1]; L1210, ip, I.P.",104 mg/kg
same,ED50,"[1]; L1210, po, P.O.",24 mg/kg
same,ED90,"[1]; L1210, po, P.O.",76 mg/kg
same,anti-tumor effect against L 1210-Tumor,[1]; compared with S-(-)-cyclophosphamide and racemic form,better anti-tumor effect than those of shown by S-(-)-cyclophosphamide and racemic form of cyclophosphamide
same,ED50,[2]; [6],24.3 mg/kg
same,ED90,[2]; [6],50.8 mg/kg
same,acute toxicity,"[3]; in mice, compared with S-(-)-cyclophosphamide and racemic form",lower acute toxicity (in mice) than those shown by S-(-)-cyclophosphamide and racemic form of cyclophosphamide
same,LD50,[3]; [7],550 mg/kg
"O=P1(N(CCCl)CCCl)NCCCO1 (single isomer, unassigned) [S-(-)-cyclophosphamide]",ID50,[1]; I.P.,44 mg/kg
same,ID90,[1]; I.P.,143 mg/kg
same,ID50,[1]; P.O.,29 mg/kg
same,ID90,[1]; P.O.,95 mg/kg
same,ID50,[2]; [6],14.6 mg/kg
same,ID90,[2]; [6],26.3 mg/kg
same,anti-tumor effect against P388-Tumor,[2]; compared with R-(+)-cyclophosphamide and racemic form,better than those of R-(+)-cyclophosphamide and racemic form of cyclophosphamide
same,LD50,[3],330 mg/kg
same,anti-tumor effect against PC6-Tumor,PC6-Tumor,better than those of R-(+)-cyclophosphamide and racemic form of cyclophosphamide
same,pharmacological activities,[5],excellent pharmacological activities as compared with R-(+)-cyclophosphamide
